{"source": "patent US20260217697A1", "about": "“COMPOUNDS COMPRISING HETEROARYL RINGS AND COMPOSITIONS AND METHODS THEREOF” (lonGen Therapeutics Co., Ltd., priority 2022, published 2026)", "data": [{"molecular_target": "T1, hTRPV3 (Homo sapiens, UniProt Q8NET8)", "T1 construct": "The commercially available plasmid with the full-length cDNA of hTRPV3 (791 aa) (NM_001258205.2); host or cells: HEK293T", "T1 sequence (Q8NET8 1-791 isoform Q8NET8-2)": "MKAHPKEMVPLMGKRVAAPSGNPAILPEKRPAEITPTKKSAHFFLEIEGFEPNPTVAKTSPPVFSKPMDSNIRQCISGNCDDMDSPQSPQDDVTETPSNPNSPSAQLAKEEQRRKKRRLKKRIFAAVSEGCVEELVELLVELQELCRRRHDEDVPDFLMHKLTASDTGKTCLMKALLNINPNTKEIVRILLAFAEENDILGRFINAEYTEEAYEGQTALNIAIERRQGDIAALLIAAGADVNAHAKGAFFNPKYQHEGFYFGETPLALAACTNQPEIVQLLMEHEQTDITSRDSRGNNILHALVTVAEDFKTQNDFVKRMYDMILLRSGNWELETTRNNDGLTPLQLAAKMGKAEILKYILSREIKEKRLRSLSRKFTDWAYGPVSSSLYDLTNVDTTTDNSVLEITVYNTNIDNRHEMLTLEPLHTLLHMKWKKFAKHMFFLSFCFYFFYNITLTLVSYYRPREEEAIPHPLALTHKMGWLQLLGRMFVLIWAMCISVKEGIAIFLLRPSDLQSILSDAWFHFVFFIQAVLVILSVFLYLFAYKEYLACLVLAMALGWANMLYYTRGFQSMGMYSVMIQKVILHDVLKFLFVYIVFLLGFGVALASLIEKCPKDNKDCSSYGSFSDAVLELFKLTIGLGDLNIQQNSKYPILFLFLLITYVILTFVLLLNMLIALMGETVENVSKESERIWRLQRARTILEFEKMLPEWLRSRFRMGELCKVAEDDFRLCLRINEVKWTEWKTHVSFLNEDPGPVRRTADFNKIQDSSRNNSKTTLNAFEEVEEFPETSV", "assay": "Whole-cell patch-clamp recording of hTRPV3 current in transfected HEK293T cells (2-APB induced)", "type": "cell-based", "settings": "current induced by 300 μM 2-APB, compounds tested up to 10 μM, room temperature", "method_in_brief": "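HEK293T cells transiently expressing full-length hTRPV3, recorded by whole-cell patch clamp 18 h post-transfection at room temperature, with 130 mM NaCl/0.3 mM EDTA/3 mM HEPES pH 7.4 on both sides. Holding potential 0 mV; 400-ms steps to +80 and −80 mV every 2 s. Block of 2-APB-evoked current, tested up to 10 μM, fitted to Hill equation for IC50.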", "units": {"IC50": "nM"}, "values": [{"smiles": "COc1ncnc(OC)c1C(=O)Nc1nc2c(s1)COc1cccc(C(F)(F)F)c1-2", "note": "[compound 99, 4,6-dimethoxy-N-(9-(trifluoromethyl)-4H-chromeno[4,3-d]thiazol-2-yl)pyrimidine-5-carboxamide]", "IC50": "≥ 10000"}, {"smiles": "COc1ncnc(OC)c1C(=O)Nc1nc2c(s1)C(CF)(CF)Oc1cc(C(F)(F)F)ccc1-2", "note": "[compound 100]", "IC50": "< 100"}, {"smiles": "COc1ncnc(OC)c1C(=O)Nc1nc2c(s1)C1(CCC(C(=O)O)CC1)Oc1cc(C(F)(F)F)ccc1-2", "note": "(centres unmarked) [compound 101, 2-(4,6-dimethoxypyrimidine-5-carboxamido)-7-(trifluoromethyl)spiro[chromeno[4,3-d]thiazole-4,1′-cyclohexane]-4′-carboxylic acid]", "IC50": "≥ 10000"}, {"smiles": "COc1ncnc(OC)c1C(=O)Nc1nc2c(s1)C1(CCC(C(N)=O)CC1)Oc1cc(C(F)(F)F)ccc1-2", "note": "(centres unmarked) [compound 102, 2-(4,6-dimethoxypyrimidine-5-carboxamido)-7-(trifluoromethyl)spiro[chromeno[4,3-d]thiazole-4,1′-cyclohexane]-4′-carboxamide]", "IC50": "≥ 10000"}, {"smiles": "CNC(=O)C1CCC2(CC1)Oc1cc(C(F)(F)F)ccc1-c1nc(NC(=O)c3c(OC)ncnc3OC)sc12", "note": "(centres unmarked) [compound 103, 2-(4,6-dimethoxypyrimidine-5-carboxamido)-N-methyl-7-(trifluoromethyl)spiro[chromeno[4,3-d]thiazole-4,1′-cyclohexane]-4′-carboxamide]", "IC50": "1000 to 10000"}, {"smiles": "CCOC(=O)CCCC1(C)Oc2cc(C(F)(F)F)ccc2-c2nc(NC(=O)c3c(OC)ncnc3OC)sc21", "note": "(centres unmarked) [compound 104, ethyl 4-(2-(4,6-dimethoxypyrimidine-5-carboxamido)-4-methyl-7-(trifluoromethyl)-4H-chromeno[4,3-d]thiazol-4-yl)butanoate]", "IC50": "100 to 1000"}, {"smiles": "CCC1(CC)Oc2cc(C(F)F)ccc2-c2nc(NC(=O)c3c(OC)ncnc3OC)sc21", "note": "[compound 105, N-(7-(difluoromethyl)-4,4-diethyl-4H-chromeno[4,3-d]thiazol-2-yl)-4,6-dimethoxypyrimidine-5-carboxamide]", "IC50": "100 to 1000"}, {"smiles": "COc1ncnc(OC)c1C(=O)Nc1nc2c(s1)C1(CCN(C(=O)OC(C)(C)C)C1)Oc1cc(C(F)(F)F)ccc1-2", "note": "(centres unmarked) [compound 106, tert-butyl 2-(4,6-dimethoxypyrimidine-5-carboxamido)-7-(trifluoromethyl)spiro[chromeno[4,3-d]thiazole-4,3′-pyrrolidine]-1′-carboxylate]", "IC50": "100 to 1000"}, {"smiles": "CCC1(CC)Oc2cnccc2-c2nc(NC(=O)c3c(OC)ncnc3OC)sc21", "note": "[compound 107]", "IC50": "1000 to 10000"}, {"smiles": "COc1ncnc(OC)c1C(=O)Nc1nc2c(s1)C1(COC(C)(C)OC1)Oc1cc(C(F)(F)F)ccc1-2", "note": "[compound 108, N-(2′,2′-dimethyl-7-(trifluoromethyl)spiro[chromeno[4,3-d]thiazole-4,5′-[1,3]dioxan]-2-yl)-4,6-dimethoxypyrimidine-5-carboxamide]", "IC50": "100 to 1000"}, {"smiles": "COc1ncnc(OC)c1C(=O)Nc1nc2c(s1)C1(CCC(NC(=O)OC(C)(C)C)CC1)Oc1cc(C(F)(F)F)ccc1-2", "note": "(centres unmarked) [compound 109]", "IC50": "100 to 1000"}, {"smiles": "CCC1(CC)Oc2cc(C(F)(F)F)ccc2-c2nc(NCc3c(OC)ncnc3OC)sc21", "note": "[compound 110, N-((4,6-dimethoxypyrimidin-5-yl)methyl)-4,4-diethyl-7-(trifluoromethyl)-4H-chromeno[4,3-d]thiazol-2-amine]", "IC50": "1000 to 10000"}, {"smiles": "CCC1(CC)Oc2cc(C(F)(F)F)ccc2-c2nc(NC(=O)c3c(Cl)ncnc3Cl)sc21", "note": "[compound 111, 4,6-dichloro-N-(4,4-diethyl-7-(trifluoromethyl)-4H-chromeno[4,3-d]thiazol-2-yl)pyrimidine-5-carboxamide]", "IC50": "1000 to 10000"}, {"smiles": "CCC1(CC)Oc2cc(C(F)(F)F)ccc2-c2nc(NC(=O)c3c(Cl)ncnc3OC)sc21", "note": "[compound 112, 4-chloro-N-(4,4-diethyl-7-(trifluoromethyl)-4H-chromeno[4,3-d]thiazol-2-yl)-6-methoxypyrimidine-5-carboxamide]", "IC50": "100 to 1000"}]}]}
